Data reported in article PMC6058516, “Bispecific antibodies (anti-mPEG/anti-HER2) for active tumor targeting of docetaxel (DTX)-loaded mPEGylated nanocarriers to enhance the chemotherapeutic efficacy of HER2-overexpressing tumors” (Drug Delivery, 2018).
≈ marks a conversion by molar mass, not a printed value.

Columns and labels:
MCF-7/HER2 = experiment: Cell viability MTT assay; type: cell-based; conditions: Homo sapiens, MCF7
Procedure: (§1) Cell viabilities of the three BC cell lines of MCF-7, MCF-7/HER2, and SKBR-3 treated with Tynen®, the LsbMDDs, DNS-LsbMDDs, and HER2-LsbMDDs were evaluated by an MTT assay. Cells were seeded at a density of 5 × 10^4 cells per well in 24-well plates and incubated for 24 h at 37 °C with 5% CO2. Then, they were treated with different concentrations of the formulations for 4 h under the same conditions. After incubation for 48 h, 50 μL of MTT (6 mg/mL) was added to each well for 3 h. The medium was removed and 200 μL of DMSO was added to each well and gently shaken to dissolve any purple formazan crystal formations. The absorbance of each well was measured at 550 nm (BioTek, Winooski, VT).

MCF-7 = experiment: Cell viability MTT assay; type: cell-based; conditions: Homo sapiens, MCF7
Procedure: as §1

Structure (SMILES): CC(=O)O[C@@]12CO[C@@H]1C[C@H](O)[C@@]1(C)C(=O)[C@H](O)C3=C(C)[C@@H](OC(=O)[C@H](O)[C@@H](NC(=O)OC(C)(C)C)c4ccccc4)C[C@@](O)([C@@H](OC(=O)c4ccccc4)[C@H]21)C3(C)C [DTX, docetaxel]
- IC50 (MCF-7/HER2): 0.052 µg/mL (≈ 0.0644 µM)
- IC50 (MCF-7): 0.763 µg/mL (≈ 0.944 µM)
